Results taken from patent US6468989B1, “Gel compositions containing metronidazole” (Dow Pharmaceutical Sciences, priority 2000, dated 2002).
Where two headings read alike, the source gives them in different places.

Assays:
[1] = Solubility of metronidazole in aqueous solutions with different HPCD concentrations, estimated by solution stability; type: physicochemical; conditions: 1-day storage at room temperature followed by 1-day storage at 5° C.
Experimental: Various solutions of hydroxypropyl-beta-cyclodextrin (HPCD) were prepared by combining a quantity of HPCD in water to yield the desired concentration of HPCD between 1% w/w and 15% w/w. To each HPCD solution, an excess amount of metronidazole was added. The solutions were placed in a shaker bath at about 60° C. for about 2 hours or more. After shaking, the samples were permitted to cool to room temperature and were stored at 5° C. […]
In accordance with the invention, stable aqueous metronidazole at the following concentrations may be obtained with the following concentrations of HPCD as shown in Table 1 and FIG. 1.

[2] = Solubility of imidazole compounds in purified water, 4% HPCD and 4% HECD; type: physicochemical
Experimental: Six sample solutions were prepared as described in Example 1 except as follows. Two groups of three sample solutions each were prepared. […] The solubility of each of the samples was determined as shown in Table 5 and was compared to the solubility of the imidazole in purified water without a solubility enhancer.

[3] = Solubilization of metronidazole by HPCD, niacinamide and their combination (visual, 1 week storage); type: physicochemical
Experimental: HPCD and niacinamide solutions were prepared and the concentrations of each to obtain a stable 1% metronidazole solution at 5° C. were determined as 5% and 3%, respectively. Then various combinations of HPCD and niacinamide concentrations in aqueous solution containing 1% metronidazole were prepared as in Example 1.
In the combination solutions, HPCD concentration was in the range of 0% to 5% and the concentration range of niacinamide was 0% to 3%. The solutions were kept at room temperature and 5° C. for a week to assess the maintenance of the dissolved state.
For solubilization effects of HPCD and niacinamide combinations, the concentrations of HPCD and niacinamide were determined in 1% metronidazole solutions, which were clear with no precipitate. Metronidazole solubility was visually determined after a week storage. In order to evaluate the solubilization capacity of the HPCD and niacinamide combinations, the niacinamide concentration required to make 1.5% metronidazole in 5% HPCD solution was determined by keeping the solution at 5° C. for 1 week.

[4] = cited from earlier work

SMILES: Cc1ncc([N+](=O)[O-])n1CCO [Metronidazole, 1-(2-hydroxyethyl)-2-methyl-5-nitroimidazole]
- Solubility of MTZ ([1]; 0.0 % w/w HPCD): 0.7 % w/w
- Solubility of MTZ ([1]; 2.0 % w/w HPCD): 1.0 % w/w
- Solubility of MTZ ([1]; 8.0 % w/w HPCD): 1.5 % w/w
- Solubility of MTZ ([1]; 10.0 % w/w HPCD): 2.0 % w/w
- Solubility of MTZ ([1]; 15.0 % w/w HPCD): 2.5 % w/w
- Appearance of solution ([2]; 4% HECD and metronidazole solution): became yellow
- Appearance of solution ([2]; 4% HPCD and metronidazole solution): remained clear and colorless
- Niacinamide concentration that permitted a 1.5% metronidazole solution ([3]; 5% HPCD): 6%
- Time the 1.5% metronidazole solution stayed clear with no precipitate ([3]; 5% HPCD and 6% niacinamide, 5° C.): 1 week
- Precipitation of 1.5% metronidazole solution ([3]; 5% HPCD, no niacinamide, room temperature): showed a precipitate
- HPCD concentration required to make a stable 1% metronidazole aqueous solution ([3]; HPCD alone, 5° C. for 1 week): 5%
- Precipitation of aqueous solution containing 1% metronidazole ([3]; HPCD reduced to 4% or less, 5° C. for 1 week): showed a precipitation formation
- HPCD concentration giving a stable 1% MTZ solution ([3]; in combination with 0.5% niacinamide): 1.0%
- Niacinamide concentration giving a stable 1% MTZ solution ([3]; in combination with 1.0% HPCD): 0.5%
- Niacinamide concentration required to make 1% metronidazole aqueous solution ([3]; niacinamide alone, 5° C. for 1 week): 3%
- Precipitation of aqueous solution containing 1% metronidazole ([3]; niacinamide reduced to 2% or less, 5° C. for 1 week): showed a precipitation formation

SMILES: C[C@H]1O[C@@H](O[C@H]2[C@@H](O)C[C@H](O[C@H]3[C@@H](O)C[C@H](O[C@H]4CC[C@@]5(C)[C@H](CC[C@@H]6[C@@H]5C[C@@H](O)[C@]5(C)[C@@H](C7=CC(=O)OC7)CC[C@]65O)C4)O[C@@H]3C)O[C@@H]2C)C[C@H](O)[C@@H]1O [digoxin]
- Water solubility combined with BCD relative to combined with HPCD [4]: five times more water soluble

SMILES: CC(=O)N1CCN(c2ccc(OCC3COC(Cn4ccnc4)(c4ccc(Cl)cc4Cl)O3)cc2)CC1 (stereo not shown) [Ketoconazole, ketoconazole]
- % w/w solubility [2]: less than 0.01 % w/w
- % w/w solubility ([2]; 4% HECD): 0.03-0.05 % w/w
- % w/w solubility ([2]; 4% HPCD): 0.01-0.03 % w/w

SMILES: CCC(C)n1ncn(-c2ccc(N3CCN(c4ccc(OCC5COC(Cn6cncn6)(c6ccc(Cl)cc6Cl)O5)cc4)CC3)cc2)c1=O (stereo not shown) [Itraconazole, itraconazole]
- % w/w solubility [2]: less than 0.01 % w/w
- Increase in solubility versus purified water [2]: not measurable
